Data taken from PubChem BioAssay AID602211 (Sanford-Burnham Center for Chemical Genomics, 2012).
Calls of active or inactive are those of the source.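 The calls were made as follows: active = mean IC50 at or below 10 µM; inactive = the rest.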

System: H9c2 cardiomyocytes, H2O2 protection, ATPLite viability, 2 h
Assay: protection of H9c2 cardiomyocytes from H2O2 death, dose response, cell-based, ATPLite luminescence, set 2 (AID 602211);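 also: potency is for protection so actives keep ATP signal up against peroxide killing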

Structure (SMILES)	IC50
N#C/C(=C\c1cn(-c2ccccc2)nc1-c1cccnc1)c1nnc2n1CCCCC2	13.7 µM (inactive)
O=C1c2ccccc2C(=O)N1CCCCSc1nc2ccccc2c(=O)n1CCCN1CCOCC1	8.49 µM
Cc1ccc2[nH]c(=O)c(CN(Cc3ccco3)S(=O)(=O)c3c(C)ccc4nsnc34)cc2c1	1.32 µM
CC(=O)Nc1cccc(NC(=O)c2cc(-c3cccnc3)nc3ccc(Cl)cc23)c1	2.24 µM
CC(C)C1Nc2ccc(C(=O)N3CCN(c4ccccn4)CC3)cc2NC1=O (stereo not given)	22.9 µM (inactive)
COc1cccc(C(=O)Nc2c(C(N)=O)oc3ccccc23)c1	8.36 µM
NS(=O)(=O)c1ccc(CCNC(=O)c2ccc(C#CC3(O)CCCCC3)cc2)cc1	> 79 µM (inactive)
CC(=O)Nc1ccc(Nc2nc(-c3sc(NC(C)=O)nc3C)cs2)cc1	12.2 µM (inactive)
COc1cc(/C=N/NC(=O)c2ccccc2)ccc1OS(=O)(=O)c1ccccc1	6.29 µM
C[C@H](CO)N1C[C@H](C)[C@@H](CN(C)S(=O)(=O)c2ccccc2)Oc2ccc(NC(=O)Nc3ccccc3)cc2C1=O	16.6 µM (inactive)
COCCCN(Cc1ccco1)C(=O)Cn1ncc2c([nH]c3ccccc32)c1=O	10.9 µM (inactive)
COc1ccc(C(C(=O)NC2CCCC2)N(C(=O)c2snc(C(N)=O)c2N)c2cccc(O)c2)cc1 (stereo not given)	12.7 µM (inactive)
O=C(Nc1cccnc1)c1sc(Nc2ccccc2)nc1-c1ccccc1	8.72 µM
CNC(=O)c1ccc(-c2sc3nc(N4CCOCC4)c4c(c3c2N)CC(C)(C)OC4)o1	6.13 µM
c1ccc(-c2nc(-n3ccnc3)nc(-n3ccnc3)n2)cc1	4.14 µM
CS(=O)(=O)Nc1cccc(NC(=O)c2cccc3c(-c4cccc(C(N)=O)c4)coc23)c1	3.61 µM
N#C/C(=C\Nc1ccc2c(c1)OCCO2)c1nc2ccccc2[nH]1	9.06 µM
COc1cc(OC)c(-c2nn3c(-c4ccco4)nnc3s2)cc1OC	4.56 µM
COc1cc(NC(=O)c2ccco2)c(OC)cc1NC(=O)c1cc(OC)c(OC)c(OC)c1	11.3 µM (inactive)
Cc1nc(N2CCN(c3ccccn3)CC2)c2c(C)c(C(=O)Nc3ccc(F)cc3)sc2n1	4.36 µM
NC(=O)c1nsc(C(=O)N(c2ccccc2)C(C(=O)NCc2ccc(F)cc2)c2ccc(O)cc2)c1N (stereo not given)	1.98 µM
COc1ccccc1NC(=O)COc1ccc(C(=O)OCC(=O)NC(C)(C)C)cc1OC	13.7 µM (inactive)
COC(=O)C1=C(C)N(CCc2ccc(OC)cc2)C(=O)C1	21.9 µM (inactive)
NC(=O)c1cc2ccccc2o/c1=N\NC(=O)c1ccc(F)cc1	4.67 µM

Structure (SMILES)	IC50
COc1ccc(-c2ccc3[nH]c4c(c3c2)CCN2C[C@H]3[C@H](C)ON(C)[C@H]3C[C@@H]42)cc1	> 79 µM (inactive)
COc1ccc(OCC(O)Cn2c(Br)nc3c2c(=O)[nH]c(=O)n3C)cc1 (stereo not given)	15.9 µM (inactive)
C=CCOC(=O)C1=C[C@H](c2cn(C(C)=O)c3ccccc23)C[C@H](OCc2ccc(CO)cc2)O1	9.81 µM
CCOC(=O)C1=C(COC(=O)c2cc(OC)c(OC)c(OC)c2)NC(=O)NC1C (stereo not given)	5.68 µM
NC(=O)COc1ccc2oc(=O)cc(-c3cc4ccccc4o3)c2c1	9.93 µM
C=CC[C@@H](CC(=O)N[C@H](CO)Cc1ccccc1)C(=O)N[C@@H](COC(=O)[C@@H](CC=C)CC(=O)OC(C)(C)C)Cc1ccccc1	12.3 µM (inactive)
CCOC(=O)c1cc2c(=O)n3ccccc3nc2n(Cc2ccco2)c1=NC(=O)c1cccnc1	19 µM (inactive)
CC12CCC3C(CCC4CC(O)CCC43C)C1CC(O)C2 (stereo not given)	3.41 µM
COc1cc(-c2cc(C(=O)Nc3ccccc3N3CCOCC3)c3ccccc3n2)cc(OC)c1OC	5.8 µM
COc1ccc2o/c(=N/NC(=O)c3cccs3)c(C(N)=O)cc2c1	2.29 µM
CCN(CC)S(=O)(=O)c1ccc(N2CCOCC2)c(NC(=O)c2cc(-c3ccccn3)nc3ccccc23)c1	1.34 µM
O=C(Nc1cccc(/C=C/c2ccccn2)c1)c1ccc(-n2cncn2)cc1	3.13 µM
O=C(Nc1ccccc1)c1nc[nH]c1C(=O)NCCNC(=O)c1[nH]cnc1C(=O)Nc1ccccc1	0.668 µM
CS(=O)(=O)c1ccc(-c2cnc3c(NC=O)cc(-c4ccsc4)cn23)cc1	12.5 µM (inactive)
COc1ccc(-c2cc(-c3nnc(COC(=O)C4CC4)o3)c3ccccc3n2)cc1OC	4.39 µM
Cc1ccc(S(=O)(=O)N2CCN(C(=O)c3cc(=O)[nH]c4ccccc34)CC2)c(C)c1	2.24 µM
CCOc1ccccc1Nc1nnc(SCc2nnc(-c3cc(OC)c(OC)c(OC)c3)o2)s1	9.01 µM
COc1ccc(-n2c(/C=C/c3ccc(O)cc3)nc3ccccc3c2=O)cc1	6.21 µM
COC(=O)c1cc2ccc(OC)cc2c2cc(OC)c(OC)cc12	> 79 µM (inactive)
CC(C)(C)OC(=O)CNC(=O)c1[nH]cnc1C(=O)Nc1ccc(CNC(=O)OC(C)(C)C)cc1	2.15 µM
COC(=O)c1ccc(N)c(N=CC2=C(O)CC(C)(C)CC2=O)c1	7.63 µM
Cc1cccc(NC(=O)c2cc(-c3ccco3)nc3ccccc23)n1	8.15 µM
COc1cc(/C=N/NC(=O)NC23CC4CC(CC(C4)C2)C3)ccc1OCC(N)=O	2.84 µM
COc1cccc(-c2cnc3c(NC=O)cc(-c4cccc(NC(C)=O)c4)cn23)c1	5.98 µM

Structure (SMILES)	IC50
Cc1nn(-c2ccccc2)c(C)c1/C=N/NC(=O)c1cc(C(C)(C)C)[nH]n1	26.5 µM (inactive)
O=C(N/N=C/c1ccccn1)c1ccc(NC(=O)c2cccc([N+](=O)[O-])c2)cc1	7.34 µM
C[C@H]1Cn2cnc(C(=O)N[C@@H](Cc3c[nH]c4ccccc34)C(=O)OC(C)(C)C)c2C(=O)N1	24.1 µM (inactive)
COc1ccccc1NC(=O)COc1ccc(/C=N/NC(=O)c2cccnc2)cc1	9.9 µM
COc1cc(C(=O)N/N=C/c2ccc(OC(=O)c3cccc(C)c3)c(OC)c2)ccc1O	3.16 µM
COc1cccc(C(=O)CSc2nnc(-c3cc(OC)c(OC)c(OC)c3)o2)c1	> 79 µM (inactive)
COC(=O)c1cc(NC(=O)c2cc3ccccc3o2)cc(C(=O)OC)c1	5.42 µM
O=c1c2ccccc2nc(CSc2ncnc3nc[nH]c23)n1-c1ccc(Cl)c(Cl)c1	4.13 µM
Cn1c(=O)c2[nH]c(NN=Cc3cccc(Br)c3)nc2n(C)c1=O	4.39 µM
CCOC(=O)N1CCN(C(=O)CSc2nc3c(cnn3-c3ccc(C)cc3)c(=O)[nH]2)CC1	2.14 µM
CSc1nc2ncc3c(n2n1)CC1c2ccccc2CCN1C3=O (stereo not given)	23 µM (inactive)
COc1cccc(OC)c1C(=O)Nc1cc(C)nn1-c1nc2ccccc2[nH]1	4.1 µM
CC(C)(C)NC(=O)c1cccc(NC(=O)c2ccc(NC(=O)c3ccco3)cc2)c1	> 79 µM (inactive)
COc1cc(/C=C/c2nc(-c3ccccc3O)n[nH]2)cc(OC)c1OC	> 79 µM (inactive)
COc1cc(-c2cc(C(=O)OCC(=O)NC3CC3)c3ccccc3n2)cc(OC)c1OC	3.98 µM
COc1cc(C(=O)Nc2cc3c(cc2N2CCCCC2)n(C)c(=O)n3C)cc(OC)c1OC	11.2 µM (inactive)
CCN(CC)S(=O)(=O)c1ccc(Nc2nc3ccccc3n3nnnc23)cc1	4.92 µM
CC1(C)Oc2ccc3ccc(=O)oc3c2/C(=C/Nc2ccccn2)C1=O	> 79 µM (inactive)
CC(C)(C)OC(=O)N1CCC[C@H]1c1nnc(SCC(=O)Nc2ccc(Br)cc2)o1	5.87 µM
Nc1c(C(=O)N/N=C/c2cccnc2)oc2nc(-c3ccco3)cc(-c3ccco3)c12	2.45 µM
COc1ccc(C(=O)Nc2cccc(NC(=O)c3ccc(OC)c(OC)c3)n2)cc1OC	1.49 µM
CC(=O)c1ccc(-c2cnc3c(NC=O)cc(-c4cccc(NS(C)(=O)=O)c4)cn23)cc1	8.18 µM
COc1cc(/C=N/NC(=O)c2ccncc2)ccc1OC(=O)c1ccccc1Cl	5.67 µM
CCN(CC)C(=O)c1[nH]cnc1C(=O)NCC(=O)OCc1ccccc1	6.88 µM

Structure (SMILES)	IC50
COc1cc(C(=O)Nc2cccc(-c3nnc(-c4ccco4)o3)c2)ccc1OC(C)=O	> 79 µM (inactive)
CC(C)c1ccccc1NC(=O)COC(=O)c1c2c(nc3ccccc13)CCN(Cc1ccccc1)C2	5.25 µM
CC(=O)Nc1cccc(NC(=O)c2cc(-c3cccnc3)nc3ccc(Br)cc23)c1	1.3 µM
COc1ccc(C(=O)Nc2nc(-c3ccccn3)cs2)cc1S(=O)(=O)N1CCOCC1	11.9 µM (inactive)
COc1ccc(C=CC(=O)c2ccc3cc(OC)c(OC)cc3c2)cc1OC	2.47 µM
CCc1nnc(NC(=O)CCC(=O)N2CCN(C3c4ccccc4-c4ccccc43)CC2)s1	12.9 µM (inactive)
COc1ccc(-c2cc3nc(-c4ccccc4)cc(N4CCN(C(C)=O)CC4)n3n2)cc1	8.73 µM
CC(C)(C)OC(=O)C[C@@H]1C/C=C\C[C@@H](CC(=O)N[C@H](CO)Cc2ccccc2)C(=O)NC[C@@H](c2ccccc2)OC1=O	17.6 µM (inactive)
COc1ccc(/C=C/C(=O)c2ccccc2O)cc1CN1CCOCC1	7.14 µM
COc1cc(NC(=O)c2cccc3c(-c4cnn(C)c4)coc23)cc(OC)c1OC	1.56 µM
CC(C)(C)C(=O)Nc1cccc(-c2nnc(-c3cccc(NC(=O)C(C)(C)C)c3)o2)c1	4.79 µM
COc1cc2nc(Nc3ccc(F)cc3)nc(N)c2cc1OC	4.24 µM
COc1cc(/C=C(\C#N)C(=O)Nc2ccccc2)ccc1OCCN1CCOCC1	11.7 µM (inactive)
CCOc1ccccc1NC(=O)c1oc2ccccc2c1NC(=O)C1CCCO1 (stereo not given)	4.13 µM
CCC(=O)N1CCN(c2ccccc2NC(=O)c2ccc(-c3cccc([N+](=O)[O-])c3)o2)CC1	1.99 µM
O=C(Nc1ccc2nc(N3CCOCC3)sc2c1)c1cc2ccccc2o1	4.75 µM
CC(=O)c1ccc(-c2cnc3c(NC=O)cc(-c4cccc(C(=O)N(C)C)c4)cn23)cc1	18.9 µM (inactive)
O=C(c1ccccc1)c1ccc2nc(N3CCN(C(=O)c4ccco4)CC3)c3nncn3c2c1	9.31 µM
O=C(CN1CCN(Cc2ccccc2)CC1)Nc1ccc([N+](=O)[O-])cc1C(=O)Nc1ccccc1F	4.75 µM
COc1ccc(OCC(O)Cn2c(Nc3cccc(C)c3)nc3c2c(=O)n(C)c(=O)n3C)cc1 (stereo not given)	12.9 µM (inactive)
COc1ccc(OC)c(/C=N/NC(=O)c2cc3c(OC)c(OC)ccc3[nH]2)c1	3.48 µM
COc1ccccc1OCC(=O)N/N=C/c1cccc2cccnc12	14.1 µM (inactive)
O=C(Nc1cc(S(=O)(=O)N2CCOCC2)ccc1N1CCCCC1)c1cc(-c2ccccn2)nc2ccccc12	3.38 µM
